Source: patent US20050175567A1, “Hair care compositions containing phenolic styling agents” (priority 2002, published 2005)

Experiment: Curl dropout of treated hair curls in high humidity chamber
Conditions: 1% by weight solution in water; curls soaked 1 hour, rinsed, dried 30 minutes; 90% RH, 30° C., fan agitation, 1 minute
Method: Three solutions were formulated each containing 1% by weight of either 2,5 dihydroxybenzoic acid, 3,4 dihydroxybenzoic acid or 3,5 dihydroxybenzoic acid. Hair curls were made up using perming rods and 30 cm length hair.
The curls were placed in the solution for 1 hour, rinsed thoroughly with distilled water and dried for 30 minutes. The hair was removed from the curling rod and the length of the curl measured.
The hair was hung in high humidity environmental chamber (90% RH, 30° C.) with fan agitation for 1 minute and measured again.
`O=C(O)c1cc(O)ccc1O` [2,5 dihydroxybenzoic acid] showed a Curl dropout % of 17.1%. `O=C(O)c1ccc(O)c(O)c1` [3,4 dihydroxybenzoic acid] gave a Curl dropout % of 29%. In the case of `O=C(O)c1cc(O)cc(O)c1` [3,5 dihydroxybenzoic acid], the Curl dropout % is reported as 26%.
